In the supplement of paper PMC10307832:

compound: CC1(C)CCC(CN2CCN(c3ccc(C(=O)NS(=O)(=O)c4ccc(NCC5CCOCC5)c([N+](=O)[O-])c4)c(Oc4cnc5[nH]ccc5c4)c3)CC2)=C(c2ccc(Cl)cc2)C1 [Venetoclax] + CC(=O)Nc1cccc(-n2c(=O)n(C3CC3)c(=O)c3c(Nc4ccc(I)cc4F)n(C)c(=O)c(C)c32)c1 [Trametinib] (partner 0.02 µM); test: relative viability (nuclei count vs DMSO), 5 days (fraction); higher = more cells survive; settings: first compound 1 µM
Outline: (§1)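 Lung cancer cell lines were pin-tool dosed in 1536-well plates on the day after seeding, with either a lone drug or a fixed anchor-drug dose plus five library-drug doses (not always all listed) in √10 steps. Nuclei were counted on 4× images after 5 days. Relative viability is the ratio of treated-well to vehicle-well nuclei counts, with each value a median of duplicate plates.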

Compared with NCI-H1944, NCI-H358 is lower in relative viability: 0.361 for the first, 0.135 for the second.

compound: CC1(C)CCC(CN2CCN(c3ccc(C(=O)NS(=O)(=O)c4ccc(NCC5CCOCC5)c([N+](=O)[O-])c4)c(Oc4cnc5[nH]ccc5c4)c3)CC2)=C(c2ccc(Cl)cc2)C1 [Venetoclax] + CC(C)C[C@H](NC(=O)[C@H](Cc1ccccc1)NC(=O)c1cnccn1)B(O)O [Bortezomib] (partner 0.002 µM); test: as above; settings: first compound 0.01 µM
Outline: as §1

Compared with PC-14, NCI-H1666 is higher in relative viability: 0.765 for the first, 0.773 for the second.

Going from EBC-1 to NCI-H1755, the relative viability rises from 0.409 to 0.993.

First: NCI-H2023
Second: PC-3 [JPC-3]
The relative viability of the first is higher: 0.964 for the first, 0.764 for the second.

Compared with LOU-NH91, NCI-H647 is higher in relative viability: 0.487 for the first, 1.08 for the second.

First: NCI-H23
Second: EMC-BAC-2
The relative viability of the first is lower: 0.95 for the first, 1.02 for the second.

Compared with NCI-H2126, Calu-6 is lower in relative viability: 1.05 for the first, 0.981 for the second.

First: HCC-44
Second: NCI-H1734
The relative viability of the first is higher: 0.85 for the first, 0.815 for the second.

First: NCI-H650
Second: NCI-H2228
The relative viability of the first is lower: 0.671 for the first, 1.04 for the second.

First: IA-LM
Second: NCI-H1299
The relative viability of the first is lower: 0.745 for the first, 1.05 for the second.

Compared with CAL-12T, NCI-H1703 is lower in relative viability: 0.976 for the first, 0.306 for the second.

Going from NCI-H1563 to ABC-1, the relative viability falls from 0.792 to 0.291.

same assay, conditions: first compound 0.03162 µM

Compared with PC-14, NCI-H1666 is lower in relative viability: 0.939 for the first, 0.931 for the second.

Compared with EBC-1, NCI-H1755 is higher in relative viability: 0.604 for the first, 1.01 for the second.

Compared with NCI-H2023, EPLC-272H is lower in relative viability: 1 for the first, 0.957 for the second.

First: LCLC-97TM1
Second: PC-3 [JPC-3]
The relative viability of the first is higher: 0.99 for the first, 0.822 for the second.

Going from LOU-NH91 to NCI-H647, the relative viability rises from 0.477 to 1.2.

Going from NCI-H23 to EMC-BAC-2, the relative viability rises from 0.952 to 1.05.

Compared with NCI-H2126, Calu-6 is lower in relative viability: 1.12 for the first, 0.972 for the second.

Going from HCC-44 to NCI-H1734, the relative viability rises from 0.93 to 1.07.

Compared with NCI-H650, NCI-H2228 is higher in relative viability: 0.792 for the first, 0.99 for the second.

First: IA-LM
Second: NCI-H1299
The relative viability of the first is lower: 0.701 for the first, 1.02 for the second.

First: CAL-12T
Second: NCI-H1703
The relative viability of the first is higher: 1.14 for the first, 0.313 for the second.

First: NCI-H1563
Second: ABC-1
The relative viability of the first is higher: 0.896 for the first, 0.314 for the second.

same assay, conditions: first compound 0.1 µM

Compared with PC-14, NCI-H1666 is lower in relative viability: 0.843 for the first, 0.676 for the second.

Compared with EBC-1, NCI-H1755 is higher in relative viability: 0.609 for the first, 0.911 for the second.

Compared with NCI-H2023, EPLC-272H is lower in relative viability: 1.03 for the first, 0.852 for the second.

First: LCLC-97TM1
Second: PC-3 [JPC-3]
The relative viability of the first is lower: 0.609 for the first, 0.794 for the second.

Going from LOU-NH91 to NCI-H23, the relative viability rises from 0.558 to 1.06.

Compared with EMC-BAC-2, NCI-H2126 is higher in relative viability: 0.958 for the first, 1.09 for the second.

Going from Calu-6 to HCC-44, the relative viability falls from 1.02 to 0.948.

Compared with NCI-H1734, NCI-H2228 is higher in relative viability: 0.921 for the first, 0.972 for the second.

Going from IA-LM to NCI-H1299, the relative viability rises from 0.959 to 0.979.

Going from CAL-12T to NCI-H1703, the relative viability falls from 0.954 to 0.21.

Compared with NCI-H1563, ABC-1 is lower in relative viability: 0.827 for the first, 0.446 for the second.

same assay, conditions: first compound 0.3162 µM

Going from PC-14 to NCI-H1666, the relative viability falls from 0.839 to 0.706.

First: EBC-1
Second: NCI-H1755
The relative viability of the first is lower: 0.511 for the first, 0.965 for the second.

Compared with NCI-H2023, EPLC-272H is lower in relative viability: 1.01 for the first, 0.872 for the second.

First: LCLC-97TM1
Second: PC-3 [JPC-3]
The relative viability of the first is higher: 1.02 for the first, 0.771 for the second.

First: LOU-NH91
Second: NCI-H647
The relative viability of the first is lower: 0.473 for the first, 0.944 for the second.

First: NCI-H23
Second: EMC-BAC-2
The relative viability of the first is higher: 1.07 for the first, 1.02 for the second.

Going from NCI-H2126 to Calu-6, the relative viability falls from 1.14 to 1.08.

First: HCC-44
Second: NCI-H1734
The relative viability of the first is lower: 0.829 for the first, 0.946 for the second.

Going from NCI-H650 to NCI-H2228, the relative viability rises from 0.873 to 1.21.

First: IA-LM
Second: NCI-H1299
The relative viability of the first is lower: 0.698 for the first, 0.999 for the second.

Compared with CAL-12T, NCI-H1703 is lower in relative viability: 0.901 for the first, 0.397 for the second.

First: NCI-H1563
Second: ABC-1
The relative viability of the first is higher: 0.944 for the first, 0.31 for the second.

same assay, conditions: first compound 1 µM

Going from PC-14 to NCI-H1666, the relative viability falls from 0.789 to 0.593.

Going from EBC-1 to NCI-H1755, the relative viability rises from 0.481 to 0.943.

Going from NCI-H2023 to EPLC-272H, the relative viability rises from 0.853 to 0.947.

Compared with LCLC-97TM1, PC-3 [JPC-3] is higher in relative viability: 0.403 for the first, 0.829 for the second.

Compared with LOU-NH91, NCI-H647 is higher in relative viability: 0.456 for the first, 1.02 for the second.

Going from NCI-H23 to EMC-BAC-2, the relative viability rises from 0.9 to 1.04.

Compared with NCI-H2126, Calu-6 is lower in relative viability: 1.11 for the first, 1.05 for the second.

Compared with HCC-44, NCI-H1734 is higher in relative viability: 0.904 for the first, 0.914 for the second.

Compared with NCI-H650, NCI-H2228 is higher in relative viability: 0.817 for the first, 1.19 for the second.

Compared with IA-LM, NCI-H1299 is higher in relative viability: 0.823 for the first, 0.98 for the second.

Compared with CAL-12T, NCI-H1703 is lower in relative viability: 0.877 for the first, 0.374 for the second.

Going from NCI-H1563 to ABC-1, the relative viability falls from 0.78 to 0.309.

compound: CC1(C)CCC(CN2CCN(c3ccc(C(=O)NS(=O)(=O)c4ccc(NCC5CCOCC5)c([N+](=O)[O-])c4)c(Oc4cnc5[nH]ccc5c4)c3)CC2)=C(c2ccc(Cl)cc2)C1 [Venetoclax] + Nc1ncn([C@H]2C[C@H](O)[C@@H](CO)O2)c(=O)n1 [Decitabine] (partner 2 µM); test: as above; settings: first compound 0.01 µM
Outline: as §1

First: NCI-H522
Second: PC-14
The relative viability of the first is higher: 0.657 for the first, 0.298 for the second.

Going from NCI-H1666 to NCI-H1755, the relative viability rises from 0.719 to 0.737.

Compared with NCI-H2023, EPLC-272H is higher in relative viability: 0.218 for the first, 0.391 for the second.

Going from LCLC-97TM1 to PC-3 [JPC-3], the relative viability rises from 0.242 to 0.854.

First: LOU-NH91
Second: NCI-H647
The relative viability of the first is higher: 0.76 for the first, 0.379 for the second.
